Patent publication US20240194290A1, “HIDDEN ANTIBIOTICS IN THE HUMAN PROTEOME” (THE TRUSTEES OF THE UNIVERSITY OF PENNSYLVANIA, priority 2021, published 2024)
Ends that are not written are not given here.

Tests used:
[1] = test system: Gram-negative gut commensals (A. muciniphila and Bacteroidetes species); experiment: Antibacterial assay against Gram-negative gut commensals; type: cell-based
Description: The 13 most abundant members of the human gut microbiota^15 were exposed to increasing concentrations of the peptides. Species from four different phyla were used to determine susceptibility to the encrypted peptides: Akkermansia muciniphila (Verrucomicrobia); Bacteroides fragilis, Bacteroides thetaiotaomicron, Bacteroides vulgatus, Bacteroides uniformis, Bacteroides eggerthi, Parabacteroidetes distasonis, and Prevotella copri (Bacteroidetes); Collinsella aerofaciens (Actinobacteria); and Clostridium scindens and Clostridium spiroforme (Firmicutes).
Methods: Bacterial strains and media. […] Minimum inhibitory concentrations (MICs) of peptides were determined using the broth microdilution technique in LB, NB and supplemented BHI with an initial inoculum of 5×10^6 cells in nontreated polystyrene microtiter plates (Corning, USA). […]

[2] = test system: A. baumannii ATCC19606; experiment: Neutropenic thigh infection mouse model; type: in vivo, Acinetobacter baumannii; conditions: for anti-infective activity (FIG. 4E): alone, A. baumannii ATCC19606; for decrease of bacterial counts compared to untreated controls: mice, 25 μmol L^−1 intramuscular, three days post-treatment, A. baumannii
Description: (§1) FIG. 4. Anti-infective activity and synergistic interactions of encrypted peptides in vivo. (FIG. 4A) Schematic of the skin abscess mouse model used to assess the anti-infective activity of selected encrypted peptides from plasma proteins. […] (FIG. 4C) Mouse weight was monitored throughout the experiment (2 days) to rule out potential toxic effects of the encrypted peptides. (FIG. 4D) Schematic of the neutropenic thigh infection mouse model used to assess the anti-infective activity of selected encrypted peptides from plasma proteins. […] (FIG. 4F) Mouse weight was monitored throughout the experiment (8 days) to rule out potential toxic effects of the encrypted peptides.
(§2) Next, the efficacy of the same encrypted peptides (SCUB1-SKE25 and SCUB3-MLP22) was assessed in monotherapy and in combination therapy in a murine thigh infection model (FIG. 4D). This preclinical model is sensitive, standardized, and widely used for assessing antibiotic translatability^43,44. Briefly, mice were rendered neutropenic by cyclophosphamide treatment prior to intramuscular infection with 10^6 cells mL^−1 of the bacterial pathogens P. aeruginosa and A. baumannii (FIG. 4E). Either a single dose of each encrypted peptide (at 25 μmol L^−1) or their combination (also at 25 μmol L^−1) were delivered to the infected site via intramuscular administration. Three days post-treatment, on average the peptides reduced the bacterial load of P. aeruginosa and A. baumannii by 4 and 2 orders of magnitude, respectively, compared to untreated mice.
(§3) Methods: Skin abscess infection mouse model. A. baumannii ATCC19606 and P. aeruginosa strain PAO1 were used to infect the murine skin. Briefly, bacteria were grown in tryptic soy broth (TSB) medium. Subsequently, cells were washed twice with sterile PBS (pH 7.4, 13,000 rpm for 1 min), and resuspended to a final concentration of 1×10^5 and 1×10^6 CFU/20 μL for A. baumannii and P. aeruginosa, respectively. Female CD-1 mice (six-weeks old) were anesthetized with isoflurane and had their backs shaved and a superficial linear skin abrasion was made with a needle in order to damage the stratum corneum and upper-layer of the epidermis. […] Animals were euthanized and the area of scarified skin was excised two- and four-days post-infection, homogenized using a bead beater for 20 minutes (25 Hz), and 10-fold serially diluted for CFU quantification. […] Prior to each injection, mice were anesthetized with isoflurane and monitored (respiratory rate and pedal reflexes). Next, we monitored the formation of the abscess and euthanized the mice. The infected area was excised three-days post-infection, homogenized using a bead beater for 20 min (25 Hz), and 10-fold serially diluted for CFU quantification. […]

[3] = test system: P. aeruginosa PAO1; experiment: Neutropenic thigh infection mouse model; type: in vivo, Pseudomonas aeruginosa; conditions: for anti-infective activity (FIG. 4E): alone, P. aeruginosa PAO1; for decrease of bacterial counts compared to untreated controls: mice, 25 μmol L^−1 intramuscular, three days post-treatment, P. aeruginosa
Description: as §1, §2, §3

With SKEMFPRSFIKLLRSKVSRFLRPYK [SCUB1-SKE25] the “activity against Gram-negative gut commensals” value [1] was “potent activity”, the “anti-infective activity (FIG. 4E)” value [2] was “reduced infections” and the “decrease of bacterial counts compared to untreated controls” value (shortened to “decrease of bacterial counts”) [2] was 3 orders of magnitude. For the same sequence, the “anti-infective activity (FIG. 4E)” value [3] was “reduced infections” and the “decrease of bacterial counts” value [3] was 3 orders of magnitude.
For MLPKSFIKLLRSKVSSFLRPYK [SCUB3-MLP22], the “activity against Gram-negative gut commensals” value [1] was “potent activity”, the “anti-infective activity (FIG. 4E)” value [2] was “reduced infections” and the “decrease of bacterial counts” value [2] was 3 orders of magnitude. The “anti-infective activity (FIG. 4E)” value [3] was “reduced infections” and the “decrease of bacterial counts” value [3] was 3 orders of magnitude.
